Source: paper PMC5017735, “A Novel Peptide Derived from the Fusion Protein Heptad Repeat Inhibits Replication of Subacute Sclerosing Panencephalitis Virus In Vitro and In Vivo” (PLoS ONE, 2016)
Peptide text beside a SMILES is read from it.

How the values were obtained:
MV Edmonston strain = assay: Viral plaque reduction assay, measles virus in Vero cells; assay type: cell-based; conditions: Vero cells
Procedure: (§1) African green monkey kidney (Vero) cells and Vero cells expressing human SLAM (Vero/SLAM cells) were used in all experiments. The growth medium for Vero cells comprised minimal essential medium (MEM) supplemented with 10% heat-inactivated newborn bovine serum, penicillin G (100 IU/ml), streptomycin (100 μg/ml), and L-glutamine (300 μg/ml). The same growth medium, which was further supplemented with G418 (400 μg/ml), was used for Vero/SLAM cells. Cells were seeded into the wells (22 mm) of 12-well tissue culture plates at 1 × 10^5 cells/well and incubated at 37°C in a 10% CO2 incubator for 3 days, at which time they had just reached confluence. The virus strains used were human MV Edmonston strain and SSPE Yamagata-1 [34], which was originally isolated from the brain of an SSPE patient. The Edmonston strain of MV was used to inoculate Vero/SLAM cells and harvested after freeze–thawing infected cells. The SSPE Yamagata-1 strain was cultured in Vero/SLAM cells, harvested by trypsinization, prepared as an infected cell suspension in the Vero/SLAM cell medium supplemented with 10% dimethyl sulfoxide, and stored at −80°C until use.
(§2) Screening was performed to evaluate the antiviral effects of each synthetic peptide against the MV and SSPE viruses using the viral plaque reduction assay. Based on the results of the peptide screening, the 50% effective concentration (EC50), i.e., the concentration of compounds required to inhibit virus plaque formation by 50%, was also determined. The Human MV Edmonston strain was used to produce cell-free virions, which yielded a reproducible number of syncytia [generally 200–300 plaque-forming units (PFUs)] in the control wells. The SSPE virus was also used to yield a reproducible number of syncytia (generally 70–150 PFU) in control wells. In the peptide screening assay, each synthetic peptide was used at a concentration of 10 μM. IFN-α and enfuvirtide, a peptide fusion inhibitor of HIV-1, were used as controls at a concentration of 250 IU/ml and 10 μM, respectively.

SSPE Yamagata-1 strain [1] = assay: Viral plaque reduction assay, SSPE virus in Vero cells; assay type: cell-based, SSPE virus (variant measles virus)
Procedure: as §1, §2

SSPE Yamagata-1 strain [2] = assay: Viral plaque reduction assay, SSPE virus in Vero/SLAM cells; assay type: cell-based, SSPE virus (variant measles virus)
Procedure: as §1, §2

Vero cells = assay: Methyl tetrazolium cytotoxicity assay, Vero cells; assay type: cell-based, African green monkey; conditions: confluent Vero cells, 24 h, 37°C
Procedure: (§3) Peptide cytotoxicity was determined using the methyl tetrazolium assay. Five-fold serial dilutions of peptides were added to confluent Vero or Vero/SLAM cells. Cells were then incubated at 37°C for 24 h, and the number of viable cells was determined using 3-(4,5-dimethyllthiazol-2-yl)-2,5-diphenylterazolium bromide (Sigma–Aldrich, Tokyo, Japan). The 50% cytotoxic concentration (CC50), which was defined as the concentration required to reduce the cell viability by 50% relative to that of untreated controls, was determined. The selectivity index (SI) was defined as the ratio of the CC50 relative to the EC50 value.

Vero/SLAM cells = assay: Methyl tetrazolium cytotoxicity assay, Vero/SLAM cells; assay type: cell-based, African green monkey; conditions: confluent Vero/SLAM cells, 24 h, 37°C
Procedure: as §3

SSPE virus = assay: Time-of-addition experiments, SSPE virus in Vero cells; assay type: cell-based, SSPE virus (variant measles virus)
Procedure: Synthetic peptides, M1 and M2EK (10 μM each) were used in time-of-addition experiments. Each peptide was added to Vero cells at three distinct time points: prior to infection (pretreatment with the compound), at the same time as the virus infection (simultaneous infection), or post-infection (post-entry). The SSPE virus was prepared to yield a reproducible number of syncytia in untreated control wells (approximately 50–100/well). In the pretreatment assay, peptide was added to confluent cells and incubated at 37°C for 30 min, and the cell cultures were washed with MEM before viral inoculation. Cells were then challenged with the SSPE virus at 0°C for 30 min. In the simultaneous infection assay, SSPE virus with peptide was inoculated at 0°C for 30 min. After the adsorption, the cell cultures were subsequently washed with MEM, and growth medium containing 0.75% methylcellulose was overlaid on the cell cultures, followed by incubation for 3 days in both pretreatment and simultaneous infection assays. In the post-entry assay, cells were challenged with the SSPE virus at 0°C for 30 min. After adsorption, the cell cultures were subsequently washed with MEM and peptide, which was prepared in growth medium containing 0.75% methylcellulose, was subsequently overlaid on the cell cultures at distinct time points. The starting point when cells were incubated at 0°C for 30 min was defined as t0.

SSPE Yamagata-1 strain [3] = assay: Animal survival experiment, SSPE virus-infected nude mouse model; assay type: in vivo, BALB/cAJcl-nu/nu mice; conditions: SSPE virus 250 PFU intracranial; peptide 100 μM intracranial at 0, 6 and 24 h; n = 6; control group 0%
Procedure: Based on a previous report, but with slight modifications, 3-week-old female BALB/cAJcl-nu/nu mice (CLEA Japan Inc., Tokyo, Japan) were used in the animal experiments. Mice were divided in four groups (n = 6 for each cage) and housed with free access to both water and food and monitored daily. The mice were SSPE virus-infected or mock-infected (MEM alone) intracranially. An SSPE virus-infected cell suspension containing 250 PFU/ 30 μl (100% lethal dose) was inoculated into the subarachnoid space of nude mice using a 27-gauge double needle at a depth of 2 mm. Each compound was prepared at a concentration of 100 μM and was injected intracranially at 0 (mixed with viruses), 6, and 24 h after the initial virus inoculation. All injections were performed under inhalational anesthesia with isoflurane. Each mouse was checked for neurological symptoms and weighed daily. The ethical endpoint was defined as <75% of their maximum weight because most mice would die within 24 h. On attaining this endpoint, the mice were sacrificed by cervical dislocation under inhalational anesthesia with isoflurane. In this experiment, five mice died of natural causes before the ethical endpoint; however, all mice had neurological symptoms and 9.5%, 13.2%,14.5%, 15.8%, 16.4% weight loss (one each) relative to their maximum weight. […]

SSPE Yamagata-1 strain [4] = assay: Viral RNA quantification in whole brain of SSPE virus-infected nude mice; assay type: in vivo, BALB/cAJcl-nu/nu mice; conditions: day 14 post-infection; intracranial peptide; n = 5 per group; P < 0.05
Procedure: Mice were divided in three groups (n = 5 for each cage) and housed with free access to both water and food and monitored daily. Mice were infected with SSPE virus intracranially in the same as animal survival experiments. Euthanasia was performed by cervical dislocation under isoflurane anesthesia on day 14 post-infection. The brain of each mouse was immediately harvested and mechanically homogenized with 2 ml Vero/SLAM cell growth medium using a PRO200 handheld or post-mounted homogenizer (PRO Scientific Inc., CT, USA). The homogenized brains were stored at −80°C. Viral RNA was extracted using ISOGEN-LS, and cDNA was synthesized using a reverse transcription kit (PrimeScript RT-reagent kit). MV RNA was quantified using a TaqMan real-time polymerase chain reaction assay, as previously described. The primer and probe were designed based on the MV Edmonston strain N gene, as previously reported. PCR amplification was performed using a 7300 Real-Time PCR system (Applied Biosystem). The control plasmid was produced by Dragon Genomics Center (Takara Bio, Mie, Japan) based on the MV Edmonston strain N gene (position 1321–1500).

[5] = In vivo toxicity, mice administered peptides alone; design: species or system BALB/cAJcl-nu/nu mice; conditions: peptide 100 μM intracranial, no virus infection
Procedure: Based on a previous report, but with slight modifications, 3-week-old female BALB/cAJcl-nu/nu mice (CLEA Japan Inc., Tokyo, Japan) were used in the animal experiments. Mice were divided in four groups (n = 6 for each cage) and housed with free access to both water and food and monitored daily. The mice were SSPE virus-infected or mock-infected (MEM alone) intracranially. An SSPE virus-infected cell suspension containing 250 PFU/ 30 μl (100% lethal dose) was inoculated into the subarachnoid space of nude mice using a 27-gauge double needle at a depth of 2 mm. Each compound was prepared at a concentration of 100 μM and was injected intracranially at 0 (mixed with viruses), 6, and 24 h after the initial virus inoculation. All injections were performed under inhalational anesthesia with isoflurane. Each mouse was checked for neurological symptoms and weighed daily. The ethical endpoint was defined as <75% of their maximum weight because most mice would die within 24 h. On attaining this endpoint, the mice were sacrificed by cervical dislocation under inhalational anesthesia with isoflurane. In this experiment, five mice died of natural causes before the ethical endpoint; however, all mice had neurological symptoms and 9.5%, 13.2%,14.5%, 15.8%, 16.4% weight loss (one each) relative to their maximum weight. This study was approved by the control of the Animal Research Committee in accordance with the Guidelines on Animal Experiments in Fukushima Medical University and the Rules for the Protection and Care of Animals (approval number: 23038).

[6] = selectivity index, ratio of CC50 relative to EC50

## CC[C@H](C)[C@H](NC(=O)[C@H](CCC(=O)O)NC(=O)[C@H](CCC(=O)O)NC(=O)[C@H](CO)NC(=O)[C@H](CCCCN)NC(=O)[C@H](CCCCN)NC(=O)[C@H](CC(C)C)NC(=O)[C@H](CC(C)C)NC(=O)[C@H](CCC(=O)O)NC(=O)[C@H](CCC(=O)O)NC(=O)[C@H](C)NC(=O)[C@H](CCCCN)NC(=O)[C@H](CCCCN)NC(=O)[C@H](CC(C)C)NC(=O)[C@H](CCCCN)NC(=O)[C@H](CCC(=O)O)NC(=O)[C@H](CCC(=O)O)NC(=O)[C@H](C)NC(=O)[C@H](CCCCN)NC(=O)[C@H](CCCCN)NC(=O)[C@H](CC(C)C)NC(=O)[C@H](CC(N)=O)NC(=O)[C@H](CCC(=O)O)NC(=O)[C@H](CCC(=O)O)NC(=O)[C@@H](NC(C)=O)C(C)C)C(=O)N[C@@H](CC(C)C)C(=O)N[C@@H](CCCCN)C(=O)N[C@@H](CCCCN)C(=O)N[C@@H](CCSC)C(=O)N[C@@H](CCC(=O)O)C(=O)N[C@@H](CCC(=O)O)C(=O)N[C@@H](CC(C)C)C(=O)N[C@@H](CO)C(=O)N[C@@H](CCCCN)C(=O)N[C@@H](CCCCN)C(N)=O [Peptide M2EK] (Ac-VEENLKKAEEKLKKAEELLKKSEEILKKMEELSKK-NH2)
MV Edmonston strain; plaque reduction, MV Edmonston strain, mean ± SD
  EC50: 100 ± 70 nM
MV Edmonston strain; [6]
  SI, measles virus (Vero cells): >989
SSPE Yamagata-1 strain [1]; peptide 10 μM, Vero cells and Vero/SLAM cells (Fig 2C), duplicate, at least twice independently
  inhibition of plaque formation compared with the control group, SSPE Yamagata-1 strain (peptide screening): > 97%
SSPE Yamagata-1 strain [1]; plaque reduction, SSPE Yamagata-1 strain, Vero cells, mean ± SD
  EC50: 50 ± 30 nM
SSPE Yamagata-1 strain [1]; selectivity index, ratio of CC50 relative to EC50, Vero cells
  SI, SSPE virus (Vero cells): >2041
SSPE Yamagata-1 strain [2]; plaque reduction, SSPE Yamagata-1 strain, mean ± SD
  EC50: 20 ± 10 nM
SSPE Yamagata-1 strain [2]; [6]
  SI, SSPE virus (Vero/SLAM cells): >6579
Vero cells
  CC50, SSPE virus (Vero cells): >100000 nM
  CC50, measles virus (Vero cells): >100000 nM
Vero/SLAM cells
  CC50, SSPE virus (Vero/SLAM cells): >100000 nM
SSPE virus; peptide 10 μM overlaid at distinct time points after adsorption
  viral inhibitory effect, peptide added post-infection (post-entry): observed in a time-dependent manner, particularly within 24 h
SSPE virus; peptide 10 μM, pretreatment 37°C 30 min or simultaneous with SSPE virus 0°C 30 min, compared with control
  viral plaque numbers, peptide added before viral adsorption or at the same time as virus inoculation: no reduction in viral plaque numbers
SSPE Yamagata-1 strain [3]
  survival rate: 67%
SSPE Yamagata-1 strain [4]
  viral RNA copies in whole brain, lower than in M1-treated mice: approximately four
  viral RNA copies in whole brain, lower than in enfuvirtide-treated mice: approximately three
[5]
  survival of mice administered with peptides alone, with no symptoms: > 45 days
